Assay results from patent US20040214805A1, “Method and compositions for treating pulmonary diseases” (SmithKline Beecham Corporation, priority 1999, published 2004).
Where two headings read alike, the source gives them in different places.

What was measured:
asthma patients [1] = details: comparators, cited from earlier work
[2] = test system: patients with mild/moderate asthma; experiment: Cilomalast/low dose inhaled corticosteroid (ICS) dose-ranging study; assay type: in vivo, human
Text: This was a phase IIB, randomised, placebo-controlled, dose-ranging study with a one-week single-blind placebo run-in, a 6-week double-blind treatment phase and a one-week follow-up phase in patients with mild/moderate asthma.
Study population: Male or female patients aged between 18 and 70 years, with mild to moderate asthma, who were not adequately controlled on low doses of inhaled corticosteroids (no greater than 500 mcg beclomethasone dipropionate/day or equivalent) were eligible. Patients were required to have a screening FEV1 of >50% and <80% predicted for height, age, sex and race and a 12% or greater reversibility after beta-2 agonist administration. Patients had to have a summary symptom score of 6 or more on 4 out of 7 days preceding the baseline visit to be randomised. The sample size was 300 evaluable patients.
cilomalast was dosed at 5 mg, 10 mg 15 mg twice daily for 6 weeks.
Subjects were on a median of 500 mcg of beclometbasone equivalent although the mean dose of ICS was 652 mcg.
Primary endpoint: change from baseline to endpoint in trough clinic expiratory volume in 1 second (FEV1), changes in clinic FEV1 every week and over a 4 hour period following first dose of double-blind medication.
The primary efficacy measure was defined as the change from baseline to endpoint in trough clinic forced expiratory volume in 1 second (FEV1). Changes in clinic FEV1 were also analysed at each week of the double-blind treatment phase and over a 4-hour period immediately following the first dose of double-blind medication. Secondary efficacy variables were use of inhaled/nebulised beta-2 agonist and overnight asthma symptoms. Tertiary efficacy variables were forced vital capacity (FVC), clinic peak expiratory flow rate (PEFR), forced expiratory flow at 25-75% (FEF25-75) and 75% (FEF75), domiciliary PEFR variability, domiciliary PEFR (morning and evening), summary symptom score (a composite score of overnight, morning and overall daytime asthma), morning asthma, overall daytime asthma, inhaled corticosteroid use, cough, wheeze, breathlessness/chest tightness, asthma exacerbation rates and global assessments by the physician and the patient.

asthma patients [3] = experiment: Allergen challenge studies (LAR); assay type: in vivo, human; details: Ariflo 15 mg bd
Text: Legend: Data on cilomalast was taken from the protocol analysis in asthma patients on <652 mcg of ICS. Data on montelukast (MT), budesonide (BDP) and both was taken from a single study in the Singulair SBA that examined the effect of Singulair relative to inhaled […] corticosteroids.

[4] = test system: patients with mild/moderate asthma on ≧800 mcg of beclomethasone; experiment: Cilomalast/high dose inhaled corticosteroid (ICS) study; assay type: in vivo, human
Procedure: R, DB, PC, DR in patients with mild/moderate asthma on ≧800 mcg of beclomethasone
cilomalast® doses were 5, 10 and 15 mg twice daily for 4 weeks.
Primary endpoint: trough clinic FEV1.
Secondary endpoints: morning PEFR, symptoms, PEFR variability, evening PEFR, clinic PEFR, FEF25-75, FEF75, rescue medication used.

[5] = developed as an antidepressant; e.g. pyrosis, nausea and emesis; cited from earlier work

For `O=C(Nc1cccc2c(=O)cc(-c3nnn[nH]3)oc12)c1ccc(OCCCCc2ccccc2)cc1` [Ultair], the “% Max fall LAR (treatment effect)” value (asthma patients [1]; ICS = 800 mcg budesonide) is given as 10.7%, the “% Protection max fall LAR” value (asthma patients [1]; ICS = 800 mcg budesonide) is given as 30.8% and the “% AUC of LAR (treatment effect)” value (asthma patients [1]) is given as 42.4%. For the same molecule, the “% Protection AUC LAR” value (asthma patients [1]) was 42.6%.
In the case of `COc1ccc([C@]2(C#N)CC[C@@H](C(=O)O)CC2)cc1OC1CCCC1` [cilomalast, cis 4-cyano-4-(3-cyclopentyloxy-4-methoxyphenyl)cyclohexan-1-carboxylic acid], the “4 hour FEV1, domiciliary PEFR, FEF25-75, physician and patient global assessment scores” value ([2]; 15 mg BID) is reported as “Corroborating support”, the “improvement in trough FEV1 at endpoint, ITT analysis, vs placebo” value ([2]; 15 mg BID, 6 weeks, on low dose ICS, p=0.062, no statistical improvement) is reported as 0.16 L and the “improvement in trough FEV1, excluding patients on ICS doses >500 mcg of beclamethasone” value ([2]; 15 mg BID, p=0.033, significant) is reported as 0.21 L. For the same molecule, the “dose ordering of response for trough FEV1 at endpoint, ITT analysis” value ([2]; 5, 10, 15 mg twice daily for 6 weeks) was “dose-ordered”, the “comparison with Singulair when added to low dose ICS” value ([2]; placebo group also improved in the cilomalast study) was “outperformed Singulair” and the “% AUC of LAR (treatment effect)” value (asthma patients [3]) was 3.5%. For the same molecule, the “% Max fall LAR (treatment effect)” value (asthma patients [3]) was 1.3%, the “% Protection AUC LAR” value (asthma patients [3]) was “NONE” and the “% Protection max fall LAR” value (asthma patients [3]) was “NONE”. For the same molecule, the “4 hour clinic FEV1, clinic FVC, PEFR” value ([4]; 10 mg BID) was “numerically superior results”, the “improvement in trough FEV1, repeated measures analysis, patients on <800 mcg of ICS excluded” value ([4]; 10 mg BID, p=0.009) was 0.16 L and the trough concentrations ([4]; 5, 10, 15 mg twice daily) was “dose proportional”. For the same molecule, the “dose ordering for the primary endpoint (trough clinic FEV1)” value ([4]; 5, 10, 15 mg twice daily, 4 weeks) was “No dose ordering” and the “change in clinic trough FEV1, ITT analysis” value ([4]; any dose group (5, 10, 15 mg twice daily, 4 weeks)) was “No statistically significant change”.
In the case of `COc1ccc(C2CNC(=O)C2)cc1OC1CCCC1` (stereo not shown) [rolipram], the “side effects in clinical studies” value [5] is listed as “produces gastrointestinal effects”.
